Assay results: the supplement of paper PMC4862054

Tests used:
Conditions in all cases: incubation time: 72 h
[1] = system: BT-474; assay: normalised response (% of control), CellTox Green; higher = less cell death (100 = DMSO, 0 = benzethonium chloride kill control)
Summary of the method: (§1)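 Plates were normalised with 0.1 % DMSO as 100 and a positive kill control as 0. Breast cancer cell lines in 20 µl suspension had been seeded into 384-well plates with compound at 5 concentrations in 10-fold steps over a compound-specific 10,000-fold range, incubated 72 h, and read for CellTox Green fluorescence (485/520 nm) followed by CellTiter-Glo luminescence. Each value is the normalised signal at a single concentration.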

[2] = system: BT-549; assay: as above
Summary of the method: as §1

[3] = system: CAL-120; assay: as above
Summary of the method: as §1

[4] = system: CAL-148; assay: as above
Summary of the method: as §1

[5] = system: CAL-51; assay: as above
Summary of the method: as §1

[6] = system: CAL-85-1; assay: as above
Summary of the method: as §1

[7] = system: DU-4475; assay: as above
Summary of the method: as §1

[8] = system: HCC1143; assay: as above
Summary of the method: as §1

[9] = system: HCC1599; assay: as above
Summary of the method: as §1

[10] = system: HCC1937; assay: as above
Summary of the method: as §1

[11] = system: HDQ-P1; assay: as above
Summary of the method: as §1

[12] = system: Hs578T; assay: as above
Summary of the method: as §1

[13] = system: MCF-10A; assay: as above
Summary of the method: as §1

[14] = system: MDA-MB-231; assay: as above
Summary of the method: as §1

[15] = system: MDA-MB-436; assay: as above
Summary of the method: as §1

[16] = system: MDA-MB-453; assay: as above
Summary of the method: as §1

[17] = system: MDA-MB-468; assay: as above
Summary of the method: as §1

[18] = system: MFM-223; assay: as above
Summary of the method: as §1

[19] = system: BT-474; assay: normalised response (% of control), CellTiter-Glo; higher = more viable cells (100 = DMSO, 0 = benzethonium chloride kill control)
Summary of the method: as §1

[20] = system: BT-549; assay: as above
Summary of the method: as §1

[21] = system: CAL-120; assay: as above
Summary of the method: as §1

[22] = system: CAL-148; assay: as above
Summary of the method: as §1

[23] = system: CAL-51; assay: as above
Summary of the method: as §1

[24] = system: CAL-85-1; assay: as above
Summary of the method: as §1

[25] = system: DU-4475; assay: as above
Summary of the method: as §1

[26] = system: HCC1143; assay: as above
Summary of the method: as §1

[27] = system: HCC1599; assay: as above
Summary of the method: as §1

[28] = system: HCC1937; assay: as above
Summary of the method: as §1

[29] = system: HDQ-P1; assay: as above
Summary of the method: as §1

[30] = system: Hs578T; assay: as above
Summary of the method: as §1

[31] = system: MCF-10A; assay: as above
Summary of the method: as §1

[32] = system: MDA-MB-231; assay: as above
Summary of the method: as §1

[33] = system: MDA-MB-436; assay: as above
Summary of the method: as §1

[34] = system: MDA-MB-453; assay: as above
Summary of the method: as §1

[35] = system: MDA-MB-468; assay: as above
Summary of the method: as §1

[36] = system: MFM-223; assay: as above
Summary of the method: as §1

[37] = system: SK-BR-3; assay: as above
Summary of the method: as §1

Compound	normalised response [1] [%]	normalised response [2] [%]	normalised response [3] [%]	normalised response [4] [%]	normalised response [5] [%]	normalised response [6] [%]	normalised response [7] [%]	normalised response [8] [%]	normalised response [9] [%]	normalised response [10] [%]	normalised response [11] [%]	normalised response [12] [%]	normalised response [13] [%]	normalised response [14] [%]	normalised response [15] [%]	normalised response [16] [%]	normalised response [17] [%]	normalised response [18] [%]	normalised response [19] [%]	normalised response [20] [%]	normalised response [21] [%]	normalised response [22] [%]	normalised response [23] [%]	normalised response [24] [%]	normalised response [25] [%]	normalised response [26] [%]	normalised response [27] [%]	normalised response [28] [%]	normalised response [29] [%]	normalised response [30] [%]	normalised response [31] [%]	normalised response [32] [%]	normalised response [33] [%]	normalised response [34] [%]	normalised response [35] [%]	normalised response [36] [%]	normalised response [37] [%]
FC(F)c1nc2ccccc2n1-c1nc(N2CCOCC2)nc(N2CCOCC2)n1 [ZSTK474] (1000 nM)	90.7	95.5	107	89.5	92.8	101	102	77.2	96.3	101	49.5	104	57.7	90.3	85.9	103	79.9	71	70.3	42.4	65.4	69.2	49.7	49.8	87.9	73.5	79.1	69.7	51.9	45.4	47.5	61.6	56.8	40.4	58.3	55.8	35.2
C[C@@H]1CCN(C(=O)CC#N)C[C@@H]1N(C)c1ncnc2[nH]ccc12 [Tofacitinib] (500 nM)	104	129	102	108	103	102	101	98	112	132	102	115	64.1	116	82.4	101	137	103	107	98.4	98.6	109	75.8	106	103	99.6	138	100	104	99.8	97.5	107	104	94.5	104	108	107
CS(=O)(=O)CCNCc1ccc(-c2ccc3ncnc(Nc4ccc(OCc5cccc(F)c5)c(Cl)c4)c3c2)o1 [Lapatinib] (100 nM)	96	126	96.9	77.7	101	96.8	98.3	–	105	118	92.8	–	109	115	91.4	92.5	116	101	99.9	104	102	98.3	90.5	96.1	99.1	103	97.2	94.6	83.9	115	79.1	108	103	92.2	102	104	50.2
Cc1cc(C(C)Nc2ccccc2)c2nc(N3CCOCC3)cc(=O)n2c1 (stereo unspecified) [TGX-221] (1000 nM)	95.7	92.6	99.8	90.8	105	106	96.2	90.6	101	102	103	97.5	105	110	90.5	105	113	80.3	83.3	88.8	94.8	98.1	102	91.7	95.7	89.4	106	86.9	88	93.7	93.8	89.7	89.4	97.2	77.8	95	91.7
